# Key:
# [1] = test system: Neonatal rat ventricular myocytes (NRVMs); assay: Inhibition of fatty acid transport blocks serum-induced NRVM hypertrophy; type: cell-based; details: Coulter Counter
# Procedure: Synthesis of Sulfo-N-succinimidyl oleate (SSO) was performed as described by Harmon et al. (J. Membr Biol.; 121:261-268; 1991), which is hereby incorporated by reference. Briefly, oleate (0.25 mM), HOSu(SO3)Na (0.25 mM), and dicyclohexylcarbodiimide (DCC) (0.275 mM) were dissolved in 0.5 ml of dry N,N-dimethylformamide (DMF) and stirred overnight at room temperature. Precipitated dicyclohexyturea was removed by filtration, and the filtrate cooled to 3° C. for 4 hours. Eight volumes of ethyl acetate were added, and the precipitated product was collected by filtration under nitrogen and then stored in a vacuumed desiccator over phosphorus pentoxide. Neonatal rat ventricular myocytes (NRVMs) were cultured in serum-free media (MEM/Hepes/PB12) containing insulin, transferrin, BSA, and BrdU. NRVMs were treated with serum (2%) in the presence and absence of SSO (400 μM) for 48 hours and cell size was determined using a Coulter Counter.
# [2] = test system: Aquaporin 7; assay: Aqp7 mRNA by qPCR after fatty acid treatment; type: cell-based, rat; details: fasted plasma supplemented with FFAs, relative to 1 DPF plasma, FIG. 11
# Procedure: (§1) Individual fatty acids were complexed to BSA as described by de Vries et al. (J. Lipid Res.; 38:1384-1394; 1997), which is hereby incorporated by reference. […] An equal volume of Na2CO3 (10 mM) was added and the ethanol was evaporated at 60° C. under continuous N2 flow. The fatty acid mix was added dropwise to 10% BSA. BSA/fatty acid complexes were then dialyzed four times at 4° C. during 4-6 hours in NH4HCO3 (0.1 M). Complexes were then frozen, lyophilized overnight, and resuspended in NRVM rinse media (MEM/PB12/Hepes) for a final concentration of 7 mM. NRVMs were treated with fasted serum, 1 day post-fed serum, or fasted serum+individual fatty acids. […] NRVM gene expression and mean cell diameter were determined after either 24 or 48 hours, respectively.
# [3] = test system: neonatal rat cardiomyocytes; assay: Fasted plasma supplemented with fatty acids, NRVM cell size; type: cell-based; details: fasted plasma 2% supplemented to 1 DPF-like levels (C14 40 μM; C16 137 μM; C16:1 7.5 μM), 48 hours, FIG. 10
# Procedure: as §1
SMILES,"cell growth induced by the fed-serum ([1]; SSO 400 μM, 2% 1DPF serum, 48 hours)",cell size ([1]; SSO and no serum (control)),Aqp7 mRNA levels [2],changes in cell size [3]
"CCCCCCCC/C=C\CCCCCCCC(=O)ON1C(=O)CC(S(=O)(=O)O)C1=O (stereo not shown) [SSO, Sulfo-N-succinimidyl oleate]",completely blocks,smaller,,
"CCCCCCCCCCCCCC(=O)O [C14, tetradecanoic acid]",,,comparable levels observed with 1 DPF plasma,significant increase

# From US9925162B2, “Methods and compositions for inducing physiological hypertrophy” (THE REGENTS OF THE UNIVERSITY OF COLORADO, priority 2009, dated 2018)
